Experimental data published in PMC10095932 (Molecules, 2023).
Like-named read-outs stand apart in the source and are kept apart here. Where a SMILES comes first, the peptide text is derived from it. Bridges are numbered along the chain shown (N, C = ends).

Key:
[1] = target: T1, human NPR-A (Homo sapiens, UniProt P16066); assay: cGMP ALPHAscreen, cGMP production in HEK 293 cells transiently overexpressing hNPR-A; type: cell-based; conditions: HEK 293 cells overexpressing hNPR-A; for Emax at 10 µM: HEK293, read-out: cGMP production, % of the maximum response (compared with DNP, hANP, hBNP); for EC50: 30 min at 37 °C, cGMP ALPHAscreen, three separate experiments in triplicate, read-out: hNPR-A EC50 (95% CI), potency to stimulate cGMP production
T1 construct: expressed in transfected cells; host or cells: HEK 293 cells, transient, Lipofectamine 2000
T1 sequence (P16066 33-1061): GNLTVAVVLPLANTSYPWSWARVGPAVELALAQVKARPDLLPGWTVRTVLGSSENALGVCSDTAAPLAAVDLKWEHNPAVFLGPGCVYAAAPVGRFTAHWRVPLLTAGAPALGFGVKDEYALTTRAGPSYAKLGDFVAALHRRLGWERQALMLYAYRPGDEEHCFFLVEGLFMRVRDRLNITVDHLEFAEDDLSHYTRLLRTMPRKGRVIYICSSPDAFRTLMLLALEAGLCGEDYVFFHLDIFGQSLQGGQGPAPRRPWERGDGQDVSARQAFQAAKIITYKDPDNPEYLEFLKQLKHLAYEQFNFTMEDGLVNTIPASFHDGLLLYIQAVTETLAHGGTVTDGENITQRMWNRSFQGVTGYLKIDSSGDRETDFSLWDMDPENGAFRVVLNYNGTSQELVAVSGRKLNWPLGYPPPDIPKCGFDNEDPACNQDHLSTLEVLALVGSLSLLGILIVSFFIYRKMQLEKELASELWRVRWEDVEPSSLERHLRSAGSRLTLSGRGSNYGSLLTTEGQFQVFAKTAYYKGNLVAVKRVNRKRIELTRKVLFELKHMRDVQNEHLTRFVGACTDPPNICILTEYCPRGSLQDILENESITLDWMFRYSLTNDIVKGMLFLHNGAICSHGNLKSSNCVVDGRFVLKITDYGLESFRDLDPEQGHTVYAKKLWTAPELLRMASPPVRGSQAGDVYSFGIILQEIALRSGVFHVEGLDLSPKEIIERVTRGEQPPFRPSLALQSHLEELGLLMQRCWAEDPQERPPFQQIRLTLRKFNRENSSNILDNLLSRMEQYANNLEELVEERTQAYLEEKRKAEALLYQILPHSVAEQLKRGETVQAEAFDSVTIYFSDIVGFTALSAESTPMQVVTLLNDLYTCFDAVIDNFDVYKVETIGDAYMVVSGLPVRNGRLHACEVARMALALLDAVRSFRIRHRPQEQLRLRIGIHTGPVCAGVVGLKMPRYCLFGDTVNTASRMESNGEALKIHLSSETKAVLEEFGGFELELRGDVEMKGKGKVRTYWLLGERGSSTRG
Method: (§1) Cells were cultured at 5% CO2 and 37 °C. HEK 293 cells were cultured in high glucose DMEM (Gibco, Carlsbad, CA, USA) supplemented with 10% FBS, and 1% penicillin/streptomycin. HEK 293 cells were seeded in media lacking penicillin/streptomycin 24 to 48 h pre-transfection. PC12 cells were cultured in high glucose DMEM (Gibco) supplemented with 10% FBS and 1% penicillin/streptomycin.
HEK 293 cells were transfected using the lipofectamine 2000 transfection protocol (Invitrogen). Cells (95% confluence) were transfected with 45% pcDNA3.1/hNPR-A, 45% pcDNA3.1, and 10% pEGFP-NI to the optimal DNA concentration specified in the protocol. The co-transfection with pEGFP-NI plasmid allowed the determination of the transfection efficiency. This was assessed by the estimation of the number of GFP-expressing cells using an Olympus IX70 inverted fluorescence microscope. Transfected cells were used for assay purposes within 24 h.
(§2) The cGMP ALPHAscreen was performed using the ALPHAscreen Protein A detection kit and the biotinylated cGMP supplement (Perkin Elmer, Waltham, MA, USA) with rabbit anti-cGMP polyclonal antibody (Biovision, Mountain View, CA, USA). Cells were detached from the flask and the resulting pellet was resuspended in stimulation buffer (HBSS supplemented with 0.1% w/v BSA and 1 mM IBMX at 37 °C). Cells were added to a white 384-well Optiplate (Perkin Elmer, Waltham, USA) to 30,000 cells per well for HEK 293 cells and 10,000 cells per well for PC12 cells. Cells were incubated with different concentrations of test peptides (concentration range of 1 × 10^−5 to 1 × 10^−11 M in stimulation buffer) at 37 °C for 30 min. Cells were lysed with lysis buffer (1 M HEPES, 0.3% Tween-20, 1% BSA in H2O, pH 7.4). Then 5 μL acceptor-bead mix was added to each well under subdued lighting conditions, followed by 5 μL of donor-bead mix. Plates were incubated for ~12 h, slowly shaking at room temperature. After incubation, the ALPHAscreen signal was measured using an EnVision plate reader (Perkin Elmer). The standard curve consisted of cGMP in a concentration range of 1 × 10^−6 to 1 × 10^−12 M. All data points were acquired in triplicate and were analyzed using GraphPad Prism 5.0 software (GraphPad Software, Inc., San Diego, CA, USA).

[2] = target: T2, rat NPR-A (Rattus norvegicus, UniProt P18910); assay: cGMP ALPHAscreen, cGMP production in PC12 cells; type: cell-based; conditions: for EC50: PC12 cells, cGMP ALPHAscreen
T2 construct: endogenous in cells; host or cells: rat PC12 cells
T2 sequence (P18910 29-1057): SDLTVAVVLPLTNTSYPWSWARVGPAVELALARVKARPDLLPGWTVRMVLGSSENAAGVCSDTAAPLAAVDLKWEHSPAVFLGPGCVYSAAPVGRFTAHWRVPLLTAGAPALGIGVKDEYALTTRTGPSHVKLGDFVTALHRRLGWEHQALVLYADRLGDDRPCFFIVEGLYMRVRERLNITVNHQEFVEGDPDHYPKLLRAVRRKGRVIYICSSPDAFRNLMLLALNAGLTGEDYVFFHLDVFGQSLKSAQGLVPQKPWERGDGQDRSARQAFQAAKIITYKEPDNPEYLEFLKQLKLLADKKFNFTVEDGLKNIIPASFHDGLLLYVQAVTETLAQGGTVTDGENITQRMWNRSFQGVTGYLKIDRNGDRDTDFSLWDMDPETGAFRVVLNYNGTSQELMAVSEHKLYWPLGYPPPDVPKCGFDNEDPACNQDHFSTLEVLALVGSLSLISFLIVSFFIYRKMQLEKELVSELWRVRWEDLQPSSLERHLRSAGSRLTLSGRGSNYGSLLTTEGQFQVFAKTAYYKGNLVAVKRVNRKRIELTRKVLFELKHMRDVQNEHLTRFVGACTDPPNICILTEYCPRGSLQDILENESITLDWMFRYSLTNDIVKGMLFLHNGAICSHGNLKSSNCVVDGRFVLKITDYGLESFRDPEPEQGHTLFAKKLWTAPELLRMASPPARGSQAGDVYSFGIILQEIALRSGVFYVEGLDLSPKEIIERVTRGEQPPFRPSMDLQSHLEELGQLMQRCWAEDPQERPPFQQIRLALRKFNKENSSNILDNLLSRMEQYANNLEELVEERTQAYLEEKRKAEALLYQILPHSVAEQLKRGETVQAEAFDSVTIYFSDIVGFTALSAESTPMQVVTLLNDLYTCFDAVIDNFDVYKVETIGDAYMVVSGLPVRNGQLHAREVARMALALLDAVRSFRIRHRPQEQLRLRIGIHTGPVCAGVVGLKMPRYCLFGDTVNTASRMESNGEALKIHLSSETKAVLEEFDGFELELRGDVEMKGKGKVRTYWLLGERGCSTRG
Method: NP activity can be determined by the effectiveness of the peptide to elicit cGMP production through NPR-A. The cGMP ALPHAscreen evaluates the ability of peptides to stimulate cGMP production in cells through a non-radioactive, homogenous, proximity assay which encompasses […]. […] In order to evaluate the potency of TNPa-e at rNPR-A, TNPa-e were evaluated using the cGMP ALPHAscreen in rat PC12 cells.
as §1, §2

[3] = 30 min at 37 °C, three to five separate experiments in triplicate, read-out: rNPR-A EC50 (95% CI), potency to stimulate cGMP production

SMILES | Emax at 10 µM [1] [%] | EC50 [1] [nM] | EC50 [2, 3] [nM] | EC50 ([2]; read-out: EC50 at rNPR-A) [nM] | selectivity / difference in potency for rNPR-A over hNPR-A ([2]; rNPR-A (PC12) versus hNPR-A (HEK 293) cGMP potency) [fold]
CC[C@H](C)[C@H](NC(=O)[C@H](CCCCN)NC(=O)[C@H](CO)NC(=O)[C@H](CC(=O)O)NC(=O)[C@@H](N)CO)C(=O)NCC(=O)N[C@@H](CC(=O)O)C(=O)NCC(=O)N[C@H]1CSSC[C@@H](C(=O)N[C@@H](CC(N)=O)C(=O)N[C@@H](CCCNC(=N)N)C(=O)N2CCC[C@H]2C(=O)N[C@H](C(=O)N[C@@H](CCC(N)=O)C(=O)N[C@@H](CC(N)=O)C(=O)N[C@@H](CCCNC(=N)N)C(=O)N2CCC[C@H]2C(=O)N[C@@H](CCCCN)C(=O)N[C@@H](CCCCN)C(=O)O)C(C)C)NC(=O)CNC(=O)[C@H](CC(C)C)NC(=O)CNC(=O)[C@H](CO)NC(=O)[C@H](C(C)C)NC(=O)[C@H](CO)NC(=O)CNC(=O)[C@H]([C@@H](C)CC)NC(=O)[C@H](Cc2c[nH]cn2)NC(=O)[C@H](CC(=O)O)NC(=O)[C@H](CC(C)C)NC(=O)[C@@H]2CCCN2C(=O)[C@H](CC(C)C)NC(=O)CNC(=O)[C@H](Cc2ccccc2)NC1=O [TNPa] (H-SDSKIGDGCFGLPLDHIGSVSGLGCNRPVQNRPKK-OH; disulfide 9-25) | < 20 | > 10000 | 2020 | > 1000 | –
CC[C@H](C)[C@@H]1NC(=O)[C@H](Cc2c[nH]cn2)NC(=O)[C@H](CC(=O)O)NC(=O)[C@H](CC(C)C)NC(=O)[C@@H]2CCCN2C(=O)[C@H](CC(C)C)NC(=O)CNC(=O)[C@H](Cc2ccccc2)NC(=O)[C@@H](NC(=O)CNC(=O)[C@H](CC(=O)O)NC(=O)CNC(=O)[C@@H](NC(=O)[C@H](CCCCN)NC(=O)[C@@H]2CCCN2C(=O)[C@H](CC(=O)O)NC(=O)[C@@H](N)CO)[C@@H](C)CC)CSSC[C@@H](C(=O)N[C@@H](CC(N)=O)C(=O)N[C@@H](CCCNC(=N)N)C(=O)N2CCC[C@H]2C(=O)N[C@H](C(=O)N[C@@H](CCC(N)=O)C(=O)N[C@@H](CC(N)=O)C(=O)N[C@@H](CCCNC(=N)N)C(=O)N2CCC[C@H]2C(=O)N[C@@H](CCCCN)C(=O)N[C@@H](CCCCN)C(=O)O)C(C)C)NC(=O)CNC(=O)[C@H](CC(C)C)NC(=O)CNC(=O)[C@H](CO)NC(=O)[C@H](C(C)C)NC(=O)[C@H](CO)NC(=O)CNC1=O [TNPb] (H-SDPKIGDGCFGLPLDHIGSVSGLGCNRPVQNRPKK-OH; disulfide 9-25) | ~30 | > 10000 | 1200 | > 1000 | –
CC[C@H](C)[C@@H]1NC(=O)[C@H](CCCNC(=N)N)NC(=O)[C@H](CC(=O)O)NC(=O)[C@H]([C@@H](C)CC)NC(=O)[C@@H]2CCCN2C(=O)[C@H](Cc2ccccc2)NC(=O)CNC(=O)[C@H](Cc2ccccc2)NC(=O)[C@@H](NC(=O)CNC(=O)[C@H](CC(N)=O)NC(=O)CNC(=O)[C@@H](NC(=O)[C@H](CCCCN)NC(=O)[C@@H]2CCCN2C(=O)[C@H](CC(=O)O)NC(=O)[C@@H](N)CO)[C@@H](C)CC)CSSC[C@@H](C(=O)N[C@@H](CC(N)=O)C(=O)N[C@@H](CCCNC(=N)N)C(=O)N[C@@H](CC(C)C)C(=O)N[C@H](C(=O)N[C@@H](CCC(N)=O)C(=O)N[C@@H](CC(N)=O)C(=O)N2CCC[C@H]2C(=O)N2CCC[C@H]2C(=O)N[C@@H](CCCCN)C(=O)N2CCC[C@H]2C(=O)N[C@H](C(=O)N[C@@H](CO)C(=O)NCC(=O)N[C@@H](CCC(=O)O)C(=O)N[C@@H](CO)C(=O)O)[C@@H](C)CC)C(C)C)NC(=O)CNC(=O)[C@H](CC(C)C)NC(=O)CNC(=O)[C@H](CO)NC(=O)[C@H](C(C)C)NC(=O)[C@H](CO)NC(=O)CNC1=O [TNPd] (H-SDPKIGNGCFGFPIDRIGSVSGLGCNRLVQNPPKPISGES-OH; disulfide 9-25) | ~30 | > 10000 | 18 | – | 560
